Here are results for three compounds from patent US11351154B2, “Molecular genetic approach to treatment and diagnosis of alcohol and drug dependence” (University of Virginia Patent Foundation, priority 2011, dated 2022).

Data set [1] relates to subjects of the ondansetron clinical trial (251 subjects). Description: CART decision-tree subgroup analysis of ondansetron treatment effect on percentage heavy drinking. Conditions: for E(Y|T=1), Y=phd base90-mean(phdweek): T=1(ondansetron). The data set is classed as in vivo, human. The source says:
A decision tree is a structure that can be used to divide up a large collection of records into successively smaller sets of records by applying a sequence of simple decision rules. One advantage of decision tree is that the results can be easily interpreted. CART is a popular decision tree algorithm first published in Breiman et al 1984. CART starts by dividing data into 2 sub-groups (child nodes) that are homogeneous with respect to a particular target variable, in our case the target variable is the binary class label Z. By doing exhaustive search over all possible cutoffs for all possible candidate covariates, sub-groups are formed by identifying optimal split point for the optimal candidate covariate. Repeat the process recursively at each child node until one of the stopping criteria is met. In the end, CART prunes tree to smaller optimal size using cross-validation. After the final tree is determined, the class label (treatment) for “new subjects” is given by running them down the tree and identifying which terminal node they belong. The class label of the terminal node is formed by majority vote of cases in this node, that is if the proportion of class 1 in this node p>0.5, then the class label is 1, otherwise is 0. Let t denote the node, which is a region of the covariates space. A Split denoted by s on a numeric variable Xj take the form Xj<xji, where xji is a cut-off selected by trying all values of Xj in the data set as candidate split points. s splits the node t into left and right daughter nodes […]. The impurity function is used as a measure of node homogeneity. To calculate the impact of a split, compute increase in purity (or reduction in impurity) and choose a split that gives maximal value over all possible splits as the best splitter for node t. Gini criterion is the usual splitting criteria chosen by CART for categorical target. […] The full tree would not do the best job when applied to new dataset. The CART identifies candidate sub-trees through a process of repeated pruning. CART relies on a concept called adjusted error rate, AERα(T)=error rate(T)+α node count(T). This is a measure that increases each tree(T)'s misclassification rate on the training set by imposing a complexity penalty based on the number of final nodes in the tree. One can form a sequence of sub-trees of the full tree by varying the penalty value (cost complexity parameter), α and determining the tree that minimizes the adjusted error rate. After deleting the subjects with missing data, 251 subjects were included in the data analysis. Y=phd […]=(phd base90,Onage,[…], . . . , […]). There are total 21 genotypes. T=1(ondansetron) and T=0(placebo). The goal is to find a subgroup defined by X where the treatment effect is significant. After transforming this problem to a classification problem. CART was used to find the best subgroup with decision tree form.

Data set [2] deals with individuals in alcohol trials. Particulars: naltrexone dose of 50 mg/day; cited from earlier work.
Data set [3] relates to individuals who take topiramate. Particulars: cited from earlier work.

As for `Cc1nccn1CC1CCc2c(c3ccccc3n2C)C1=O` (centres unmarked) [OND, 9-methyl-3-[(2-methyl-1H-imidazol-1-yl)methyl]-1,2,3,9-tetrahydrocarbazol-4-one], the “E(Y|T=1), Y=phd base90-mean(phdweek)” value in data set [1] (overall sample, 251 subjects) turned out to be 32.1%; in data set [1] (subgroup gen1=I (rs150226=AA or AG), 42 subjects), 50.9%; in data set [1] (subgroup gen2: rs1150226=GG, rs1176719=AA or AG, phd base90≥0.8663, 49 subjects), 37.6%; in data set [1] (subgroup gen (gen1 + gen2), 91 subjects) it was 43.0%. The “overall sample mean difference E(Y|T=1)−E(Y|T=0)” value in data set [1] (overall sample, ondansetron minus placebo) came to 0.2%. In addition, the “sample mean difference E(Y|T=1)−E(Y|T=0)” value in data set [1] (subgroup gen1=I (rs150226=AA or AG), ondansetron minus placebo) came out at 28.7%; in data set [1] (subgroup gen2: rs1150226=GG, rs1176719=AA or AG, phd base90≥0.8663, ondansetron minus placebo), 15.0%; in data set [1] (subgroup gen (gen1 + gen2), ondansetron minus placebo) it was 20.6%.

Turning to `Cl.O=C1CC[C@@]2(O)[C@H]3Cc4ccc(O)c5c4[C@@]2(CCN3CC2CC2)[C@H]1O5` [naltrexone, 17-(Cyclopropylmethyl)-4,5a-epoxy-3,14-dihydroxymorphinan-6-one hydrochloride], in data set [2], the “individuals unable to tolerate the dose” value is given as “about 15%”.

Regarding `CC1(C)O[C@@H]2[C@@H](CO[C@@]3(COS(N)(=O)=O)OC(C)(C)O[C@@H]23)O1` [topiramate, 2,3:4,5-Bis-O-(1-methylethylidene)-beta-D-fructopyranose sulfamate], the “cognitive impairment reported, share of individuals” value in data set [3] (general population) is given as 2.4%. The “occurrence rate of cognitive impairment” value in data set [3] (substance abuse field) is given as “about 18.7%”.
